Assays:
soybeans (Fukuyutaka) [1] = assay: Experimental Example 1: seed coating, number of root nodules; type: in vivo, soybean; details: Table 1-1
Method: A solution of SF, SL, or RL dissolved in water (a composition for promoting root nodule formation) as the following amount in each of the following treatments was prepared. The seeds of soybeans (Fukuyutaka) were coated using the solution in an amount of 800 μL/100 g seed to obtain coated seeds.
A 9 cm poly pot was filled with culture soil and seeded with three coated seeds in each pot.
After seeding, the coated seeds were cultivated in a greenhouse set at 28° C. during the day (14h) and 18° C. at night (10h).
(§1) Seven days after the seeding, the soybeans in each pot were thinned to one plant, and each pot was irrigated with 4.3 ml of a mixture of rhizobium materials (rhizobium and azospirillum) mixed with water at a proportion of 10 g/L.
(§2) Twenty-one days after the irrigation, the roots were washed with water so as not to remove root nodules, the culture soil was removed, and then, the root nodules formed on the roots were collected.
After the seeding, each pot was fertilized with ½ Hoagland solution once a week. In addition, experiments were conducted on eight pots (eight plants) in each treatment.
(§3) A plurality of experiments were conducted by changing the type of the composition for promoting root nodule formation and the like. Tables 1-1 and 1-2 show the date of seeding, the date of irrigating, the date of investigating the number of root nodules, the amount of SF, SL, or RL in the composition for promoting root nodule formation, and the investigation result of the number of root nodules. Note that the number of root nodules is indicated by a relative value with Tl taken as 100, with a numerical value in parentheses indicating the average number of root nodules actually measured (pieces/plant).

soybeans (Fukuyutaka) [2] = assay: Experimental Example 2: soil irrigation with composition comprising rhizobium materials, number of root nodules; type: in vivo, soybean
Method: (§4) For each of the following treatment, to a mixture of rhizobium materials (rhizobium and azospirillum) mixed with water at a proportion of 10 g/L, SF, SL, or RL was added in the following amount to prepare a solution comprising the rhizobium materials and SF, SL, or RL (a composition for promoting root nodule formation).
A 9 cm poly pot was filled with culture soil and seeded with three seeds of soybeans (Fukuyutaka) in each pot.
(§5) After seeding, the seeds were cultivated in a greenhouse set at 28° C. during the day (14h) and 18° C. at night (10h).
as §1, with “ml of the composition for promoting root nodule formation (in the treatment T1, a mixture” for “ml of a mixture”, “of 10 g/L).” for “of 10 g/L.”
as §2
(§6) After the seeding, each pot was fertilized with ½ Hoagland solution (50 mL) once a week. In addition, experiments were conducted on eight pots (eight plants) in each treatment.
as §3, with “2-1” for “1-1”, “2-2” for “1-2”, “nodules,” for “nodules, the amount of SF, SL, or RL in”, “T1” for “Tl”

soybeans (Fukuyutaka) [3] = assay: Experimental Example 4: soil irrigation with biosurfactant and/or KVP, root nodule number and weight, root weight; type: in vivo, soybean; details: with rhizobium materials
Method: as §4, with “treatments,” for “treatment,”
A 9 cm poly pot was filled with sterilized fertilizer-free culture soil (Heiwa) and seeded three seeds of soybeans (Fukuyutaka) in each pot.
as §5
as §1, with “ml of the composition for promoting root nodule formation (in the treatment T1, a mixture” for “ml of a mixture”, “of 10 g/L).” for “of 10 g/L.”
as §2, §6
as §3, with “4-1” for “1-1”, “4-2” for “1-2”, “nodules,” for “nodules, the amount of SF, SL, or RL in”, “(pieces/plant). In addition, fresh root nodule weight means the weight of root nodules before drying on the day of collection and is indicated by a relative value with Tl taken as 100. Dried underground part weight means the weight of roots dried for 48 hours at 80° C. and indicated by a relative value with Tl taken as 100.” for “(pieces/plant).”

[4] = test system: Japanese mustard spinach (Haru no Senbatsu); assay: Experimental Example 5: foliar application, microscopic observation of root hair; type: in vivo; set-up: key: those with a significant root hair increase observed were evaluated as AA; those with a root hair increase observed were evaluated as BB; those with no root hair increase observed were evaluated as CC; those with an overall or partial root hair decrease observed were evaluated as DD
Method: An observation tank formed with ½ MS agar medium (0.8% agar) was prepared in an acrylic tank. Japanese mustard spinach (Haru no Senbatsu) was seeded near the surface of the observation tank. After seeding, the Japanese mustard spinach was cultivated in an incubator set in a light period (6:00-18:00, temperature 26° C., illuminance 120 μmol/m^2·s) and a dark period (18:00-6:00, temperature 18° C.). Twelve to fourteen days after the seeding, the following liquid (a composition for promoting root hair formation) was applied on the leaf surfaces of the plant body (foliar application) so as not to drip on the agar in each of the following treatments. […] A plurality of experiments were conducted by changing the date of seeding, the date of foliar application, the date of observation, and the type of the composition for promoting root hair formation and the like. Tables 5 to 9 show the composition for promoting root hair formation, the outline of operation and the observation results of root hair.

[5] = seed coating 0.1 g/t seed (diluted 80000 times), 21 days after rhizobium irrigation
[6] = seed coating 1 g/t seed (diluted 8000 times)
[7] = seed coating 5 g/t seed (diluted 1600 times)
[8] = seed coating 10 g/t seed (diluted 800 times)
[9] = seed coating 25 g/t seed (diluted 320 times)
[10] = seed coating 50 g/t seed (diluted 160 times)
[11] = Table 2-1, irrigation 4.3 ml, diluted 100 times
[12] = Table 2-1, irrigation, diluted 500 times
[13] = Table 2-1, irrigation, diluted 1000 times
[14] = Table 4-1, single agent diluted 1000 times
[15] = Table 4-1, single agent diluted 5000 times
[16] = Table 4-1, single agent diluted 10000 times

Question: surfactin Na [SF] was tested. Which “Number of Root Nodules, average number actually measured” value (soybeans (Fukuyutaka) [1]; [5]) did it give?
Answer: 15.4 pieces/plant

Question: And the “Number of Root Nodules, relative value with T1 taken as 100” value (shortened to “Number of Root Nodules, relative value”) (soybeans (Fukuyutaka) [1]; [5])?
Answer: 105

Question: And the “Number of Root Nodules, average number actually measured” value (soybeans (Fukuyutaka) [1]; [6])?
Answer: 16.6 pieces/plant

Question: And the “Number of Root Nodules, relative value” value (soybeans (Fukuyutaka) [1]; [6])?
Answer: 114

Question: What about the “Number of Root Nodules, average number actually measured” value (soybeans (Fukuyutaka) [1]; [7]) of the same substance?
Answer: 16.6 pieces/plant

Question: And the “Number of Root Nodules, relative value” value (soybeans (Fukuyutaka) [1]; [7])?
Answer: 114

Question: What about the “Number of Root Nodules, average number actually measured” value (soybeans (Fukuyutaka) [1]; [8]) of the same substance?
Answer: 15.4 pieces/plant

Question: What about the “Number of Root Nodules, relative value” value (soybeans (Fukuyutaka) [1]; [8]) of the same substance?
Answer: 105

Question: And the “Number of Root Nodules, average number actually measured” value (soybeans (Fukuyutaka) [1]; [9])?
Answer: 16.8 pieces/plant

Question: What about the “Number of Root Nodules, relative value” value (soybeans (Fukuyutaka) [1]; [9]) of the same substance?
Answer: 115

Question: And the “Number of Root Nodules, average number actually measured” value (soybeans (Fukuyutaka) [1]; [10])?
Answer: 17.3 pieces/plant

Question: What about the “Number of Root Nodules, relative value” value (soybeans (Fukuyutaka) [1]; [10]) of the same substance?
Answer: 118

Question: And the “Number of Root Nodules, average number actually measured” value (soybeans (Fukuyutaka) [2]; [11])?
Answer: 15.9 pieces/plant

Question: What about the “Number of Root Nodules, relative value” value (soybeans (Fukuyutaka) [2]; [11]) of the same substance?
Answer: 109

Question: And the “Number of Root Nodules, average number actually measured” value (soybeans (Fukuyutaka) [2]; [12])?
Answer: 16.3 pieces/plant

Question: What about the “Number of Root Nodules, relative value” value (soybeans (Fukuyutaka) [2]; [12]) of the same substance?
Answer: 111

Question: And the “Number of Root Nodules, average number actually measured” value (soybeans (Fukuyutaka) [2]; [13])?
Answer: 16.9 pieces/plant

Question: And the “Number of Root Nodules, relative value” value (soybeans (Fukuyutaka) [2]; [13])?
Answer: 115

Question: What about the “Dried Underground Part Weight, relative value with T1 taken as 100” value (soybeans (Fukuyutaka) [3]; [14]) of the same substance?
Answer: 101

Question: And the “Fresh Root Nodule Weight, relative value with T1 taken as 100” value (“Fresh Root Nodule Weight, relative value” below) (soybeans (Fukuyutaka) [3]; [14])?
Answer: 124

Question: What about the “Number of Root Nodules, average number actually measured” value (soybeans (Fukuyutaka) [3]; [14]) of the same substance?
Answer: 19.6 pieces/plant

Question: What about the “Number of Root Nodules, relative value” value (soybeans (Fukuyutaka) [3]; [14]) of the same substance?
Answer: 114

Question: And the “Dried Underground Part Weight, relative value with T1 taken as 100” value (soybeans (Fukuyutaka) [3]; [15])?
Answer: 103

Question: What about the “Fresh Root Nodule Weight, relative value” value (soybeans (Fukuyutaka) [3]; [15]) of the same substance?
Answer: 121

Question: And the “Number of Root Nodules, average number actually measured” value (soybeans (Fukuyutaka) [3]; [15])?
Answer: 19.0 pieces/plant

Question: What about the “Number of Root Nodules, relative value” value (soybeans (Fukuyutaka) [3]; [15]) of the same substance?
Answer: 110

Question: What about the “Dried Underground Part Weight, relative value with T1 taken as 100” value (soybeans (Fukuyutaka) [3]; [16]) of the same substance?
Answer: 99

Question: What about the “Fresh Root Nodule Weight, relative value” value (soybeans (Fukuyutaka) [3]; [16]) of the same substance?
Answer: 107

Question: What about the “Number of Root Nodules, average number actually measured” value (soybeans (Fukuyutaka) [3]; [16]) of the same substance?
Answer: 18.0 pieces/plant

Question: And the “Number of Root Nodules, relative value” value (soybeans (Fukuyutaka) [3]; [16])?
Answer: 104

Question: And the “Observation Result (root hair)” value ([4]; Table 5, aqueous solution diluted 1000 times, compared with T1)?
Answer: BB

Question: And the “Observation Result (root hair)” value ([4]; Table 5, aqueous solution diluted 2000 times)?
Answer: AA

Question: And the “Observation Result (root hair)” value ([4]; Table 5, aqueous solution diluted 5000 times)?
Answer: AA

Reference: patent US20250221405A1, “ROOT NODULE FORMATION-PROMOTING COMPOSITION, AND ROOT HAIR FORMATION-PROMOTING COMPOSITION” (KANEKA CORPORATION, priority 2022, published 2025)
